Activity calls are given as the source filed them. No cut-off for these calls is given here.
Legend:
[1] = molecular target: T1, Cannabinoid receptor (Mus musculus) (UniProt P47746+P47936); assay: Agonist activity at cannabinoid receptor in ICR mouse vas deferens assessed as inhibition of electrically induced contractions at 1.82 x 10^-5 M after 10 mins relative to control; assay type: protein assay
[2] = molecular target: T1, Cannabinoid receptor (Mus musculus); assay: Agonist activity at cannabinoid receptor in ICR mouse vas deferens assessed as inhibition of electrically induced contractions at 9 x 10^-7 M after 10 mins relative to control; assay type: protein assay
[3] = molecular target: T1, Cannabinoid receptor (Mus musculus); assay: Agonist activity at cannabinoid receptor in ICR mouse vas deferens assessed as inhibition of electrically induced contractions at 10^-7 M after 10 mins relative to control; assay type: protein assay
[4] = molecular target: T1, Cannabinoid receptor (Mus musculus); assay: Agonist activity at cannabinoid receptor in ICR mouse vas deferens assessed as inhibition of electrically induced contractions at 2.7 x 10^-6 M after 10 mins relative to control; assay type: protein assay
[5] = molecular target: T1, Cannabinoid receptor (Mus musculus); assay: Agonist activity at cannabinoid receptor in ICR mouse vas deferens assessed as inhibition of electrically induced contractions at 10^-7 M after 10 mins in presence of CB2 antagonist AM630 relative to control; assay type: protein assay
[6] = molecular target: T1, Cannabinoid receptor (Mus musculus); assay: Agonist activity at cannabinoid receptor in ICR mouse vas deferens assessed as inhibition of electrically induced contractions at 9 x 10^-7 M after 10 mins in presence of CB1 antagonist AM251 relative to control; assay type: protein assay
[7] = molecular target: T1, Cannabinoid receptor (Mus musculus); assay: Agonist activity at cannabinoid receptor in ICR mouse vas deferens assessed as inhibition of electrically induced contractions at 1.82 x 10^-5 M after 10 mins in presence of CB2 antagonist AM630 relative to control; assay type: protein assay
[8] = molecular target: T1, Cannabinoid receptor (Mus musculus); assay: Agonist activity at cannabinoid receptor in ICR mouse vas deferens assessed as inhibition of electrically induced contractions at 2.7 x 10^-6 M after 10 mins in presence of CB1 antagonist AM251 relative to control; assay type: protein assay
[9] = molecular target: T1, Cannabinoid receptor (Mus musculus); assay: Agonist activity at cannabinoid receptor in ICR mouse vas deferens assessed as inhibition of electrically induced contractions at 8.1 x 10^-6 M after 10 mins in presence of CB1 antagonist AM251 relative to control; assay type: protein assay
[10] = molecular target: T1, Cannabinoid receptor (Mus musculus); assay: Agonist activity at cannabinoid receptor in ICR mouse vas deferens assessed as inhibition of electrically induced contractions at 9 x 10^-7 M after 10 mins in presence of CB2 antagonist AM630 relative to control; assay type: protein assay
[11] = molecular target: T1, Cannabinoid receptor (Mus musculus); assay: Agonist activity at cannabinoid receptor in ICR mouse vas deferens assessed as inhibition of electrically induced contractions at 3 x 10^-7 M after 10 mins relative to control; assay type: protein assay
[12] = molecular target: T1, Cannabinoid receptor (Mus musculus); assay: Agonist activity at cannabinoid receptor in ICR mouse vas deferens assessed as inhibition of electrically induced contractions at 8.1 x 10^-6 M after 10 mins relative to control; assay type: protein assay
[13] = molecular target: Beta-secretase 1 (Homo sapiens) (UniProt P56817); assay: Inhibition of human BACE1 at 10 uM incubated for 60 mins using rhodamine-EVNLDAEFK-quencher substrate by FRET assay
Chain of Beta-secretase 1 (Homo sapiens) (P56817 whole entry): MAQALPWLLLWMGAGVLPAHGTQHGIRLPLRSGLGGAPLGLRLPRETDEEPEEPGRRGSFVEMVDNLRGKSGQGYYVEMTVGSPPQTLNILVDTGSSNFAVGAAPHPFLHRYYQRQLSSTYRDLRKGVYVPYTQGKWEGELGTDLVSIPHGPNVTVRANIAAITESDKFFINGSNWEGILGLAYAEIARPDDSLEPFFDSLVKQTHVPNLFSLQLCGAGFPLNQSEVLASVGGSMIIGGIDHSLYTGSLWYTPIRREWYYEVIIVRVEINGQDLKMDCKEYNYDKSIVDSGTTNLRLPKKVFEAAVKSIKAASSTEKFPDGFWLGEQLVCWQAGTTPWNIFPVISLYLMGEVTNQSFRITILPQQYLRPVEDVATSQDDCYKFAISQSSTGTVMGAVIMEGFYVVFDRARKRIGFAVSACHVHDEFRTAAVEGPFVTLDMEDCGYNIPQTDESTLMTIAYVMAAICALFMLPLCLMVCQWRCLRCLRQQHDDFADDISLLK

[14] = molecular target: T1, Cannabinoid receptor (Mus musculus); assay: Agonist activity at cannabinoid receptor in ICR mouse vas deferens assessed as inhibition of electrically induced contractions at 3 x 10^-7 M after 10 mins in presence of CB2 antagonist AM630 relative to control; assay type: protein assay
[15] = molecular target: T1, Cannabinoid receptor (Mus musculus); assay: Agonist activity at cannabinoid receptor in ICR mouse vas deferens assessed as inhibition of electrically induced contractions at 10^-7 M after 10 mins in presence of CB1 antagonist AM251 relative to control; assay type: protein assay
[16] = Antioxidant activity assessed as trolox equivalent of APPH-induced radical scavenging activity by ORAC-FL assay; assay type: functional
Homo sapiens [17] = species on record: Homo sapiens; assay: Antiproliferative activity against Alzheimer's patient derived lymphoblast cells at 5 uM after 72 hrs by MTT assay; assay type: functional
Cholinesterase [18] = molecular target: T2, Cholinesterase (Homo sapiens, UniProt P06276); assay: Inhibition of human serum BChE using butyrylthiocholine as substrate by Ellman's assay
T2 sequence (P06276 whole entry): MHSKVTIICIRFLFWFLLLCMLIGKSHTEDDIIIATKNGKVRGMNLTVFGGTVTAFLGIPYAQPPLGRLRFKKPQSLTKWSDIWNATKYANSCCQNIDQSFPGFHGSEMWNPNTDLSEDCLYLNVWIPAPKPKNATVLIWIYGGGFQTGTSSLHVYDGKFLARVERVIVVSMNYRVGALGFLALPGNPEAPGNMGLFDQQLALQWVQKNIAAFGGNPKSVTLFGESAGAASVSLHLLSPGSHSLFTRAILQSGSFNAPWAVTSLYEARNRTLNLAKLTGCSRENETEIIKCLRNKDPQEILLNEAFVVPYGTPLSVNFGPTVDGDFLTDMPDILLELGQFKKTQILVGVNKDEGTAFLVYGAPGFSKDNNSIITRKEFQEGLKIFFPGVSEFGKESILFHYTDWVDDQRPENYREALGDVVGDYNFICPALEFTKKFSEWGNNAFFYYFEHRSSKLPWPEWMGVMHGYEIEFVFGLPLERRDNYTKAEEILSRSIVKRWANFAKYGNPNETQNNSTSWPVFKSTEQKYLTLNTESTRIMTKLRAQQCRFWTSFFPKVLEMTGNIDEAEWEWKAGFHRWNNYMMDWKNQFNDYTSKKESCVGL

[19] = molecular target: T1, Cannabinoid receptor (Mus musculus); assay: Agonist activity at cannabinoid receptor in ICR mouse vas deferens assessed as inhibition of electrically induced contractions at 2.7 x 10^-6 M after 10 mins in presence of CB2 antagonist AM630 relative to control; assay type: protein assay
[20] = molecular target: T1, Cannabinoid receptor (Mus musculus); assay: Agonist activity at cannabinoid receptor in ICR mouse vas deferens assessed as inhibition of electrically induced contractions at 3 x 10^-7 M after 10 mins in presence of CB1 antagonist AM251 relative to control; assay type: protein assay
[21] = molecular target: T1, Cannabinoid receptor (Mus musculus); assay: Agonist activity at cannabinoid receptor in ICR mouse vas deferens assessed as inhibition of electrically induced contractions at 8.1 x 10^-6 M after 10 mins in presence of CB2 antagonist AM630 relative to control; assay type: protein assay
SH-SY5Y [22] = assay: Neuroprotective activity against amyloid beta-induced neurodegeneration in human SH-SY5Y cells at 20 uM preincubated for 1 hr followed by amyloid beta addition and measured after 24 hrs in presence of CB2 antagonist AM630 by MTT assay; assay type: functional, cell-based
[23] = Antiproliferative activity against normal human derived lymphoblast cells at 5 uM after 72 hrs by MTT assay
Homo sapiens [24] = species on record: Homo sapiens; assay: Antiproliferative activity against Alzheimer's patient derived lymphoblast cells at 5 uM in presence of CB2 antagonist AM630 after 72 hrs by MTT assay; assay type: functional
[25] = molecular target: T1, Cannabinoid receptor (Mus musculus); assay: Agonist activity at cannabinoid receptor in ICR mouse vas deferens assessed as inhibition of electrically induced contractions at 1.82 x 10^-5 M after 10 mins in presence of CB1 antagonist AM251 relative to control; assay type: protein assay
Acetylcholinesterase [26] = molecular target: T3, Acetylcholinesterase (Homo sapiens, UniProt P22303); assay: Inhibition of human erythrocyte AChE using acetylthiocholine as substrate by Ellman's assay
T3 sequence (P22303 whole entry): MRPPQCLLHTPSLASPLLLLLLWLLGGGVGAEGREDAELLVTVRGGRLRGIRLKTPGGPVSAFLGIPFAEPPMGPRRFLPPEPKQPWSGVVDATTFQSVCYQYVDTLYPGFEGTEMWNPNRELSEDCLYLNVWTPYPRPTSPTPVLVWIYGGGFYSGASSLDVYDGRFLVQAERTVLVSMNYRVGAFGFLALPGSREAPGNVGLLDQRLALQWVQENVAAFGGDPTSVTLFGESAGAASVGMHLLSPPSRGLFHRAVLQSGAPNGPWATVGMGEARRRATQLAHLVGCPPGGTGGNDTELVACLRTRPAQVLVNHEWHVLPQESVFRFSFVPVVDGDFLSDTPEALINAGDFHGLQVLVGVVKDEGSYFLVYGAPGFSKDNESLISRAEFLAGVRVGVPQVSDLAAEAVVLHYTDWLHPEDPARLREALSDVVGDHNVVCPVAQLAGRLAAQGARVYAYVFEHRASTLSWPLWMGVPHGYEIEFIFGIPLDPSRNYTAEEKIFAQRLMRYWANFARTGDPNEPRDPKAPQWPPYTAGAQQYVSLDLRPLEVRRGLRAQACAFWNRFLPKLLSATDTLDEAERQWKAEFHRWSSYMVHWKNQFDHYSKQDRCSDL

SH-SY5Y [27] = assay: Neuroprotective activity against amyloid beta-induced neurodegeneration in human SH-SY5Y cells at 20 uM preincubated for 1 hr followed by amyloid beta addition and measured after 24 hrs by MTT assay; assay type: functional, cell-based
SH-SY5Y [28] = assay: Toxicity in human SH-SY5Y cells at 20 uM after 24 hrs by MTT assay; assay type: cell-based
Cholinesterase [29] = molecular target: T2, Cholinesterase; assay: Inhibition of human serum BChE at 10 uM using butyrylthiocholine as substrate by Ellman's assay
Acetylcholinesterase [30] = molecular target: T3, Acetylcholinesterase; assay: Inhibition of human erythrocyte AChE at 10 uM using acetylthiocholine as substrate by Ellman's assay

T1 sequence (P47746 whole entry, looked up): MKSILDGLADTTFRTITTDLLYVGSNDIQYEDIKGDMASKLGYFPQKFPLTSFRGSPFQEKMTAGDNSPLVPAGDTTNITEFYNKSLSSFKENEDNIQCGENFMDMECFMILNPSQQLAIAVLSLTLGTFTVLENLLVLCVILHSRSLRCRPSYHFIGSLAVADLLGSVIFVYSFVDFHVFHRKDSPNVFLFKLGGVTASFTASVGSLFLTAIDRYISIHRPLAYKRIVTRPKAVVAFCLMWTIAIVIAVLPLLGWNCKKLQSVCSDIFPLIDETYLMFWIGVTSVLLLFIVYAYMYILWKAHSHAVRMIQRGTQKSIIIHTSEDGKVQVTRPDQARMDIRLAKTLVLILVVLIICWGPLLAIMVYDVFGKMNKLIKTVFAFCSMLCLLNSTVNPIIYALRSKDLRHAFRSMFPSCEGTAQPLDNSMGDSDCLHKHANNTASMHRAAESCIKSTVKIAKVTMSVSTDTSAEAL
T1 sequence (P47936 whole entry, looked up): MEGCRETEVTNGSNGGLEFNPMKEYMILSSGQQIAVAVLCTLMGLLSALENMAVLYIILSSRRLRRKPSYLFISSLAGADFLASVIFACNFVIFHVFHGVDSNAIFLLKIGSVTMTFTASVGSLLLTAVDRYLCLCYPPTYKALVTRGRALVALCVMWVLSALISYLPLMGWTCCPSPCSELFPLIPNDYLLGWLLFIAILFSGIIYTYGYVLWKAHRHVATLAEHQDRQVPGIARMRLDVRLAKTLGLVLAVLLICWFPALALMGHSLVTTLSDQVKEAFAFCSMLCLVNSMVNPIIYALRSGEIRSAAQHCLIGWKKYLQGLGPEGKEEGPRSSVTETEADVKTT

O=C(c1cccc(Cl)c1Cl)n1nc(OCCN2CCCC2)c2ccccc21
inhibition [1]: 80.8%
inhibition [2]: 17.3%
inhibition [3]: 1.6%
inhibition [4]: 27.8%
inhibition [5]: 0%
inhibition [6]: 7.1%
inhibition [7]: 52.9%
inhibition [8]: 13%
inhibition [9]: 44.8%
inhibition [10]: 7.9%
inhibition [11]: 5.6%
inhibition [12]: 56.3%
inhibition [13]: 32.6%
inhibition [14]: 3.4%
inhibition [15]: -0.3%
Activity [16]: 0.41 equiv
Activity (Homo sapiens [17]): Active
IC50 (Cholinesterase [18]): 0.23 µM
inhibition [19]: 14.2%
inhibition [20]: 3.4%
inhibition [21]: 30.4%
Activity (SH-SY5Y [22]): inactive
Activity [23]: Non-Toxic
Activity (Homo sapiens [24]): inactive
inhibition [25]: 80.4%
IC50 (Acetylcholinesterase [26]): > 10 µM
Activity (SH-SY5Y [27]): Active

O=C(c1cccc(Cl)c1Cl)n1nc(OCCCN2CCCCC2)c2ccccc21
inhibition [1]: 96.6%
inhibition [2]: 14.3%
inhibition [3]: 1.4%
inhibition [4]: 27.4%
inhibition [5]: -3%
inhibition [6]: 8.7%
inhibition [7]: 85.5%
inhibition [8]: 15.2%
inhibition [9]: 65.3%
inhibition [10]: 10.4%
inhibition [11]: 6.2%
inhibition [12]: 89.3%
inhibition [13]: 45.1%
inhibition [14]: 0%
inhibition [15]: -0.7%
Activity [16]: inactive
Activity (SH-SY5Y [28]): Toxic
Activity (Homo sapiens [17]): Active
IC50 (Cholinesterase [18]): 0.08 µM
inhibition [19]: 18.2%
inhibition [20]: 2%
inhibition [21]: 62.7%
Activity [23]: Non-Toxic
Activity (Homo sapiens [24]): inactive
inhibition [25]: 89.8%
IC50 (Acetylcholinesterase [26]): 17 µM

O=C(c1ccccc1Cl)n1nc(OCCN2CCCC2)c2ccccc21
inhibition [1]: 75.4%
inhibition [2]: 10.8%
inhibition [3]: 1.5%
inhibition [4]: 15.1%
inhibition [5]: -2.5%
inhibition [6]: -1.2%
inhibition [7]: 29.3%
inhibition [8]: -2.2%
inhibition [9]: -2.6%
inhibition [10]: 3.5%
inhibition [11]: 4.9%
inhibition [12]: 45.9%
inhibition [13]: 9%
inhibition [14]: 0.3%
inhibition [15]: -2.8%
Activity [16]: inactive
Activity (Homo sapiens [17]): Active
IC50 (Cholinesterase [18]): 1.3 µM
inhibition [19]: 8.8%
inhibition [20]: -2.8%
inhibition [21]: 15.8%
Activity (SH-SY5Y [22]): inactive
Activity [23]: Non-Toxic
Activity (Homo sapiens [24]): inactive
inhibition [25]: 21.1%
IC50 (Acetylcholinesterase [26]): 9.7 µM
Activity (SH-SY5Y [27]): Active

COc1ccc(CC(=O)n2nc(OCCCN3CCCCC3)c3ccccc32)cc1
inhibition [1]: 96%
inhibition [2]: 16.9%
inhibition [3]: -2.4%
inhibition [4]: 42.5%
inhibition [5]: -9.2%
inhibition [7]: 94.3%
inhibition [8]: -1.6%
inhibition [9]: 61.9%
inhibition [10]: -1.4%
inhibition [11]: -0.3%
inhibition [12]: 88.5%
inhibition [13]: 60%
inhibition [14]: -9.4%
inhibition [15]: -9.4%
Activity [16]: inactive
Activity (Homo sapiens [17]): Active
IC50 (Cholinesterase [18]): > 10 µM
inhibition [19]: 14.7%
inhibition (Cholinesterase [29]): 42%
inhibition [21]: 68.5%
Activity (SH-SY5Y [22]): inactive
Activity [23]: Non-Toxic
Activity (Homo sapiens [24]): inactive
inhibition (Acetylcholinesterase [30]): 43%
inhibition [25]: 89.7%
IC50 (Acetylcholinesterase [26]): > 10 µM
Activity (SH-SY5Y [27]): Active

O=C(Cc1ccc(Cl)cc1)n1nc(OCCCN2CCCCC2)c2ccccc21
inhibition [1]: 94.2%
inhibition [2]: 0.4%
inhibition [3]: -4.5%
inhibition [4]: 7.3%
inhibition [5]: -7.8%
inhibition [6]: -2.2%
inhibition [7]: 96.1%
inhibition [8]: 12.4%
inhibition [9]: 61.8%
inhibition [10]: 2.4%
inhibition [11]: -4.8%
inhibition [12]: 67.4%
inhibition [13]: 50%
inhibition [14]: -3.2%
inhibition [15]: -5.5%
Activity [16]: inactive
IC50 (Cholinesterase [18]): > 10 µM
inhibition [19]: 19.7%
inhibition (Cholinesterase [29]): 46%
inhibition [20]: -6.2%
inhibition [21]: 86.6%
inhibition (Acetylcholinesterase [30]): 43%
inhibition [25]: 83.5%
IC50 (Acetylcholinesterase [26]): > 10 µM

From ChEMBL document CHEMBL4400519, “Indazolylketones as new multitarget cannabinoid drugs” (Eur J Med Chem, 2019)
